The values below come from patent US9101611B1, “Use of sulfonylurea (Glimepiride) to lower blood glucose” (priority 2014, dated 2015).

Structures are written as SMILES.

A short description of this assay: Stopping Glimepiride tablets after secondary failure, then resuming; effect on blood glucose. The note with it: then resumed. It is filed as in vivo, human. An excerpt:
From new research, I found a new usage of sulfonylurea drug Glimepiride when secondary failure occurs. […] It is likely that recovery works because stopping taking the drug fools the human body to assume like the first day taking it which it is claimed.
Since pre-diabetes and/or diabetes have used sulfonylurea drugs since the mid-1950s (1), there is no new matter or invention of sulfonylurea drugs in this patent application. The newness in this patent application is the usage of sulfonylurea drug like Glimepiride that fails to work when secondary failure occurs by stopping taking the tablet for 3 or 5 days which automatically also lower blood glucose and then resuming taking it that works like the first day taking it. In essence, it prevents the patient from taking more dosage of medication and/or changing to another different medication.

As to `CCC1=C(C)CN(C(=O)NCCc2ccc(S(=O)(=O)NC(=O)N[C@H]3CC[C@H](C)CC3)cc2)C1=O` [Glimepiride], the “effectiveness to lower blood glucose” value (tablets stopped for 3 days) is “recovers Glimepiride's effectiveness to lower blood glucose like the first day taking it”. Also, the recovery effectiveness entry (tablets stopped for 5 days) was “recovery effectiveness was first detected”.
